Test results reported in PubChem BioAssay (NCI).
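The compound was tested at five concentrations on cells cultured in 96-well plates, with a 48-hour exposure period. TGI is the concentration that stops growth completely.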

How the values were obtained:
Assay in all cases: NCI tumour cell line growth inhibition, 48 h
OVCAR-3 ovarian = system: OVCAR-3 ovarian
SNB-19 CNS = system: SNB-19 CNS
786-0 renal = system: 786-0 renal
MDA-MB-231 breast = system: MDA-MB-231 breast
HCT-15 colon = system: HCT-15 colon
SR leukemia = system: SR leukemia
HCT-116 colon = system: HCT-116 colon
A549 NSCLC = system: A549 NSCLC
EKVX NSCLC = system: EKVX NSCLC
U251 CNS = system: U251 CNS

SMILES	TGI (OVCAR-3 ovarian)	TGI (SNB-19 CNS)	TGI (786-0 renal)	TGI (MDA-MB-231 breast)	TGI (HCT-15 colon)	TGI (SR leukemia)	TGI (HCT-116 colon)	TGI (A549 NSCLC)	TGI (EKVX NSCLC)	TGI (U251 CNS)
COc1cccc(-c2ccc3c4c2O[C@H]2c5[nH]c6ccccc6c5C[C@@]5(O)[C@@H](C3)N(CC3CC3)CC[C@]425)c1	3.3 µM	4.23 µM	3.09 µM	3.44 µM	3.7 µM	5.51 µM	2.99 µM	3.36 µM	9.5 µM	3.15 µM
O=C1Sc2ccc(Br)cc2C(=O)Sc2ccccc21	27.2 µM	29.5 µM	25.6 µM	31.7 µM	46.5 µM	4.13 µM	26.9 µM	> 71.1 µM	22.2 µM	27.6 µM
COC(=O)C1=C(C)NC2(O)C=CC(=O)C3C(=O)N(c4ccccc4)C(=O)C132 (stereo not given)	> 100 µM	> 100 µM	> 100 µM	> 100 µM	> 100 µM	> 100 µM	> 100 µM	> 100 µM	> 100 µM	> 100 µM
CCCCCC(=O)N[C@@H](c1ccccc1)C(O)C(=O)OC1C[C@@]2(O)C(OC(=O)c3ccccc3)C3[C@](C)(C(=O)[C@H](O)C(=C1C)C2(C)C)C(OC1OCC(O)C(O)C1O)C[C@H]1OC[C@@]31OC(C)=O (stereo not given in full)	5.2 µM	> 100 µM	> 100 µM	> 100 µM	> 100 µM	40.2 µM	> 100 µM	> 100 µM	> 100 µM	> 100 µM
Cc1ccc(N=Nc2c(O)ccc3cc(S(=O)(=O)O)ccc23)c(C)c1	> 100 µM	> 100 µM	> 100 µM	> 100 µM	> 100 µM	> 100 µM	> 100 µM	> 100 µM	> 100 µM	> 100 µM
CN1C(=S)C(c2ccccc2)Sc2ccccc21 (stereo not given)	> 100 µM	> 100 µM	> 100 µM	> 100 µM	> 100 µM	> 100 µM	> 100 µM	> 100 µM	> 100 µM	> 100 µM
CCOC(=O)/C(=C\c1ccc(N(C)C)cc1)S(=O)(=O)C(F)(F)C(F)(F)C(F)(F)C(F)(F)F	> 100 µM	> 100 µM	> 100 µM	> 100 µM	> 100 µM	> 100 µM	> 100 µM	> 100 µM	> 100 µM	> 100 µM
O=C(N=C1SCCN1C(=O)C(C(F)(F)F)C(F)(F)F)C(C(F)(F)F)C(F)(F)F	> 100 µM	> 100 µM	> 100 µM	> 100 µM	> 100 µM	> 100 µM	> 100 µM	> 100 µM	> 100 µM	> 100 µM
COC(=O)C(C)(N=Cc1ccccc1)c1ccccc1 (stereo not given)	> 100 µM	> 100 µM	> 100 µM	> 100 µM	> 100 µM	> 100 µM	> 100 µM	> 100 µM	> 100 µM	> 100 µM
COC(=O)/C=C(\C)C(=O)N(C)c1ccccc1I	> 100 µM	> 100 µM	> 100 µM	> 100 µM	> 100 µM	> 100 µM	> 100 µM	> 100 µM	> 100 µM	> 100 µM
COc1cc(C2SCC(=O)N2c2ccc(-n3c(-c4ccccc4)nc4ccccc4c3=O)cc2)ccc1O (stereo not given)	> 100 µM	> 100 µM	> 100 µM	> 100 µM	> 100 µM	> 100 µM	> 100 µM	> 100 µM	> 100 µM	> 100 µM
CC(C(=O)ON1C(=O)CCC1=O)c1ccc(C(=O)c2ccccc2)s1 (stereo not given)	> 100 µM	> 100 µM	> 100 µM	> 100 µM	> 100 µM	> 100 µM	> 100 µM	> 100 µM	> 100 µM	> 100 µM
COc1ccc(S(=O)(=O)O)cc1-n1nc(C(=O)Nc2ccccc2)n[n+]1-c1cc(S(=O)(=O)[O-])ccc1OC	> 100 µM	> 100 µM	> 100 µM	> 100 µM	> 100 µM	> 100 µM	> 100 µM	> 100 µM	> 100 µM	> 100 µM
O=c1c(SSc2coc3cc(F)ccc3c2=O)coc2cc(F)ccc12	> 100 µM	> 100 µM	21.6 µM	37.1 µM	33.3 µM	> 100 µM	19.3 µM	> 100 µM	99.3 µM	79 µM
CC12CCC(C(=O)O1)C(C)(C)O2 (stereo not given)	> 100 µM	> 100 µM	> 100 µM	> 100 µM	> 100 µM	> 100 µM	> 100 µM	> 100 µM	> 100 µM	> 100 µM
COc1ccc2cc1Oc1ccc(cc1)C(Sc1ccccc1)CCOC(=O)CC2 (stereo not given)	> 100 µM	> 100 µM	> 100 µM	> 100 µM	> 100 µM	> 100 µM	> 100 µM	> 100 µM	> 100 µM	> 100 µM
Cn1c(=O)c2c(nc3n(Cc4ccccc4)c(=O)c(NCCBr)cn23)n(C)c1=O	66.7 µM	> 100 µM	37 µM	72.2 µM	> 100 µM	52.9 µM	82 µM	> 100 µM	48.1 µM	> 100 µM
O=C1/C(=C\c2cccc(Oc3ccccc3)c2)S(=O)(=O)C(c2ccccc2)N1c1ccccc1Cl (stereo not given)	64.3 µM	64 µM	> 100 µM	> 100 µM	> 100 µM	62.4 µM	39.2 µM	> 100 µM	92.2 µM	> 100 µM
